Data: US8895565B2, “Heterocyclic compound and use of the same” (priority 2009, dated 2014)

How the values were obtained:
[1] = target: T1, EGF receptor tyrosine kinase (Homo sapiens, UniProt P00533); assay: Test (a): in vitro inhibition of the enzyme EGF receptor tyrosine kinase; type: biochemical; conditions: receptor tyrosine kinase partially purified from A-431 cells, EGF-stimulated
T1 construct: Receptor tyrosine kinase was obtained from A-431 cells (derived from human vulval carcinoma) in partially purified form; endogenous in cells; host or cells: A-431 cells (human vulval carcinoma); solubilised membrane preparation
Procedure: (a) In vitro assay for measuring the effect of a test compound in inhibiting the enzyme EGF receptor tyrosine kinase
Receptor tyrosine kinase was obtained from A-431 cells (derived from human vulval carcinoma) in partially purified form by a method relevant to a method shown in Carpenter et al., J. Biol. Chem., 1979, 254, 4884, Cohen et. al., J. Biol. Chem., 1982, 257, 1523, and Braun et al., J. Biol. Chem., 1984, 259, 2051.
A-431 cells were grown in Dulbecco's modified Eagle's medium (DMEM) containing 5% fetal calf serum (FCS) up to a confluent state. The resultant cells were homogenized in a hypotonic borate/EDTA buffer (pH 10.1). The homogenate was centrifuged at 400×g for 10 minutes at 0° C. to 4° C. […]
The test compound/EGF mixture solution (5 μl) was added to the test enzyme solution (10 μl) and the mixture was incubated at 0° C. to 4° C. for 30 minutes. […] Radioactivity present in the paper-filter was measured by a liquid scintillation counter (Sequence A). […] Receptor tyrosine kinase inhibition was indicated by inhibition ratio (%), which was calculated in accordance with the following equation, provided that the measurement results of sequence A is expressed by SA, the measurement results of sequence B by SB, and the measurement results of sequence C by SC. […] Subsequently, within a concentration range of a test compound providing IC50 value, the extent of inhibition was determined.

[2] = tested on: human nasopharyngeal cancer cell line KB; assay: Test (b): in vitro inhibition of EGF-stimulated growth of KB cells (MTT); type: cell-based; conditions: EGF 10 ng/ml
Procedure: (b) In vitro assay for measuring the effect of a test compound in inhibiting growth of human nasopharyngeal cancer cell line KB by EGF-stimulation
KB cells were seeded into wells at a density of 1×10^4 to 1.5×10^4 cells per well and grown in DMEM supplemented with 5% FCS (charcoal-stripped) for 24 hours. After incubation for 3 days, cell growth was determined based on the extent of blue color occurrence, which was produced by metabolizing a MTT tetrazolium dye. Subsequently, cell growth was determined in the presence of EGF (10 ng/ml) or in the presence of EGF (10 ng/ml) and a test compound within a predetermined concentration range. Then, an IC50 value could be calculated.

[3] = tested on: liver cell growth stimulation induced by growth factor TGFα; assay: Test (c): in vivo inhibition of liver cell growth stimulation induced by TGFα (BrdU uptake); conditions: Rattus norvegicus; male rats, oral, inhibition of liver cell proliferation by BrdU uptake, approximate ED50
Procedure: (c) In vivo assay for measuring the effect of a test compound (usually, ball-milled, prepared as a suspension in 0.5% polysorbate, and orally administered) in inhibiting liver cell growth stimulation induced by administration of growth factor TGFα (subcutaneous administration of 400 μg/kg, i.e., twice a usual dose, 3 hours and 7 hours respectively after administration of the test compound) in a group of male rats
In a control group of rats, administration of TGFα causes liver cell growth stimulation as large as on average 5 times.
Cell growth of control animals and test animals was measured in accordance with the following manner:
On the morning of the day after a test compound (or 0.5% polysorbate in a control group) was administered, bromodeoxyuridine (BrdU; intraperitoneally 100 mg/kg) was administered to animals. Four hours later, the animals were killed and the livers were excised out. Slices were cut out from each liver, and BrdU uptake was measured in the same manner as in conventional immunohistological techniques described below:
To calculate an approximate ED50 value on inhibition of liver cell proliferation measured by inhibition of BrdU uptake, tests were further performed using the test compound within a predetermined dose range.

[4] = tested on: xenografts of the human vulval epidermoid carcinoma cell line A-431; assay: Test (d): in vivo inhibition of growth of A-431 xenografts in athymic nude mice; conditions: tumor volume vs untreated control, dose of 50 mg/day/weight (kg), oral, once per day
Procedure: (d) In vivo assay on a group of athymic nude mice (strain ONU: Alpk) for determining the effect of a test compound (usually, ball-milled, prepared as a suspension in 0.5% polysorbate, and orally administered) in inhibiting the growth of xenografts of the human vulval epidermoid carcinoma cell line A-431
A-431 cells were maintained in a cultured product in DMEM having 5% FCS and 2 mM glutamine supplemented thereto. Freshly cultured cells were harvested by trypsinization and subcutaneously injected into both flanks of each of many donor nude mice (10000000 cells/0.1 ml/mouse). When a sufficient amount of tumorigen was obtained (about 9 to 14 days later), fragments of tumor tissue were transplanted in the flanks of recipient nude mice (test day 0). […] To these groups of mice, administration of the test compound was commenced. The test compound was administered once per day continuously for 13 days in total (including test day 7 to 19). In some tests, administration of the test compound was continued beyond test day 19, for example, to test day 26. In each case, the animals were killed on the following day and final tumor volume was calculated from the measurement values of the length and width of the tumors. The suppression percentage was calculated from the resultant tumor volume based on the control (untreated).

T1 sequence (P00533 25-1210): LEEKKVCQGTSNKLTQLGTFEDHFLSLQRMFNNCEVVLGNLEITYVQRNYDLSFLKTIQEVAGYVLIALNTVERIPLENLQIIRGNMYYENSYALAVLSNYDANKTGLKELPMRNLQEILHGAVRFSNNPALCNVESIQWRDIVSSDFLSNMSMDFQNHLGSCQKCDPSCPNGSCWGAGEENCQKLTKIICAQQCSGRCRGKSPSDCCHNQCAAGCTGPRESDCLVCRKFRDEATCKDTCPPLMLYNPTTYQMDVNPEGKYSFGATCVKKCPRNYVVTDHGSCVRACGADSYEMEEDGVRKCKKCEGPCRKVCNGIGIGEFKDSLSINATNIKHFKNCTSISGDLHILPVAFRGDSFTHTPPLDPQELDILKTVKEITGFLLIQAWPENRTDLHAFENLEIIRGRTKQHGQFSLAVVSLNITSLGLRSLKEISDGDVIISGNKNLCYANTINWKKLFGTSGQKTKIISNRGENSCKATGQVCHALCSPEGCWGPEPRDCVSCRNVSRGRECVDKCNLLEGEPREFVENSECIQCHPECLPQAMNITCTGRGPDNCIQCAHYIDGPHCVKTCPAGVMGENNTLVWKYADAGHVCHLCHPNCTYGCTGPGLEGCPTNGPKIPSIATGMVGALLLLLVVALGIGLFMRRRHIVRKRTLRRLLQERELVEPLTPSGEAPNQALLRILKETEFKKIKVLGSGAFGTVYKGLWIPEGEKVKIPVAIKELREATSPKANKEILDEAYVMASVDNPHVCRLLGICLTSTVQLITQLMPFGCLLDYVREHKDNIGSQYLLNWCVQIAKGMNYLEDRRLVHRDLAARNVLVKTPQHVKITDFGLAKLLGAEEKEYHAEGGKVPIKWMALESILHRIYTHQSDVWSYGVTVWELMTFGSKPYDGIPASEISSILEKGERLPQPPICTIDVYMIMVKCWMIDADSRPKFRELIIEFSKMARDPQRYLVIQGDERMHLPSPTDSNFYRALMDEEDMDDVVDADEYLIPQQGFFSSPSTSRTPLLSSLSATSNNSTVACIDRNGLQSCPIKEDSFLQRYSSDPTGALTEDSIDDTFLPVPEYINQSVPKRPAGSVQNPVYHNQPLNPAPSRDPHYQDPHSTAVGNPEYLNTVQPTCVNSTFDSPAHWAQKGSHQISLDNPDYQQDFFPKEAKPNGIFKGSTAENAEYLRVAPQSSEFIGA
T1 sequence (P01133 971-1023 partner limits assumed): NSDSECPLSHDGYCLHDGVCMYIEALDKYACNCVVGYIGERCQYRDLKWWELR

Row | Compound | IC50 [1] [nM] | IC50 [2] [nM] | ED50 [3] [mg/kg] | suppression rate in Test (d) [4] [%]
1 | CCOC(=O)c1ccc(CNc2ncnc(C)c2C#Cc2ccc(C(F)(F)F)cc2)o1 [Compound No. 1, Ethyl 5-{6-methyl-5-{[4-(trifluoromethyl)phenyl]ethynyl}pyrimidin-4-ylaminomethyl}-2-furancarboxylate] | 240 | 800 | < 12.1 | 68
2 | COC(=O)c1ccc(CNc2ncnc(C)c2C#Cc2ccc(C(F)(F)F)cc2)o1 [Compound No. 2, Methyl 5-(6-methyl-5-{[4-(trifluoromethyl)phenyl]ethynyl}pyrimidin-4-ylaminomethyl)-2-furancarboxylate] | 220 | 700 | < 11.8 | 69
